Source: patent US20210299076A1, “AMINO ACID FORMULATIONS AND USES THEREOF” (University of Florida Research Foundation, Incorporated, priority 2012, published 2021)
“And” between values parts separate entries of the source, which are not always exact repeats. Identical values can stand only once.

Tests used:
ileum (HCO3− secretion) = test: pH stat HCO3− secretion in ileum; type: cell-based, mouse; conditions: 6 mM 3-OMG, absence of lumen and bath HCO3−
Description: pH stat studies are performed to determine whether HCO3^− secretion contributes to the unaccounted portion of the Isc. At least two modes of HCO3^− secretion in the mouse small intestine have been identified by the present inventors: 1) Cl^−-dependent, electroneutral Cl^−—HCO3^− exchange, and 2) Cl^−-independent, electrogenic HCO3^− secretion. […] Specifically, HCO3^−-free, poorly buffered solution is added to both sides of the tissues mounted in an Ussing chamber and both sides of the tissues are bubbled with 100% O2. Minimal HCO3^− secretion (0.1±0.01 mEq.h^−1.cm^−2, n=12) is recorded under such conditions. Subsequent addition of HCO3^−-containing buffered solution to the basolateral side and bubbling with 95% O2 and 5% CO2 on that side results in significant HCO3^− secretion 3.8±0.2 mEq.h^−1.cm^−2 (n=9). To determine whether lumen Cl^−-independent HCO3^− secretion plays a role in HCO3^− secretion (in the absence of lumen glucose), pH stat experiments are performed in the absence of lumen Cl^−. In the absence of lumen Cl^−, minimal HCO3^− secretion is recorded (0.4±0.1 pEq.h^−1.cm^−2) (FIG. 5A). […] The HCO3^− secretion in the presence of glucose could be due to a lumen Cl^−-dependent, electroneutral Cl—HCO3^− exchange or a lumen Cl^−-independent anion channel-mediated HCO3^− secretion. To assess the mechanism of glucose-stimulated HCO3^− secretion, glucose is added to the mucosal side.

Caco-2 cells = test: Confocal Ca2+ fluorescence microscopy (Fluo-8) in Caco-2 cells; type: cell-based
Description: Caco-2 cells are obtained from ATTC and cultured in Dulbecoo's modified Eagle's medium supplemented with 10% fetal calf serum (FCS) and 1% nonessential amino acids at 37° C. and 5% CO2. Caco-2 cells are passaged for 20-25 times and are seeded (2×10^5 cells/dish) on 5 cm petri-dishes and grown until 80% confluence, when the FCS concentration is changed to 5%. Cells are grown for another 10 days before they are used for functional studies.
Caco2 cells grown in 25 mm round coverslips are mounted on the bath chamber RC-21BR attached to series 20 stage adapter (Warner Instruments, CT USA). […] Fluorescence is recorded by argon lasers with excitation at 488 nm and emission at 515 nm. […] Changes are recorded and fluorescence is measured for various cells. […]
To determine the role of intracellular Ca^2+ in glucose-stimulated increase in Isc, intracellular Ca^2+ level is measured in the presence of different concentrations of glucose and 3-OMG, respectively, and in the presence of BAPTA-AM (1,2-bis(o-aminophenoxy)ethane-N,N,N′,N′-tetraacetic acid)—an intracellular calcium-specific chelator. The Ca^2+ responses to glucose and 3-OMG in cultured Caco2 cells loaded with the Ca^2+ indicator fluo 8 are monitored by laser scanning confocal microscopy. […] The mean peak amplitude of calcium fluorescence (F/Fo) with 0.6 mM glucose is calculated to be 1.32±0.1 (n=10).

In the case of CO[C@@H]([C@H](O)[C@H](O)CO)[C@@H](O)C=O [Formulation 3-OMG, 3-O-methylglucose], the “HCO3− secretion” value (ileum (HCO3− secretion)) is reported as 0.1±0.03 μEq.h^−1.cm^−2, the “Mean peak amplitude of calcium fluorescence (F/Fo)” value (Caco-2 cells; 0.6 mM in bath medium, n=10) is reported as 1.2±0.1 and 1.2±0.2 and the “Mean peak amplitude of calcium fluorescence (F/Fo)” value (Caco-2 cells; 6 mM in bathing medium) is reported as 1.5±0.1.
